One assay addresses T1, HO-1 (rat spleen) (Rattus norvegicus, UniProt P06762).
T1 construct: Spleen microsomes were used as a source of HO-1; from tissue; host or cells: spleen microsomal fraction of adult male Sprague-Dawley rats
T1 sequence (P06762 1-289): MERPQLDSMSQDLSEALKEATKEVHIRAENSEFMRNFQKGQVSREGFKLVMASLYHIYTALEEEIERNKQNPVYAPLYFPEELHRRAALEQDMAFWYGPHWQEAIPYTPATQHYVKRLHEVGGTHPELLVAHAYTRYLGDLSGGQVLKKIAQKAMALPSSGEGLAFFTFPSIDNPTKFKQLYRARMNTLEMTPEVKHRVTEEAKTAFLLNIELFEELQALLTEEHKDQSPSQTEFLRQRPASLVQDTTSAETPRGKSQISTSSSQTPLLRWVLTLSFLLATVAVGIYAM
The experiment in a line: HO enzymatic activity in rat spleen microsomal fraction (CO formed from methemalbumin, gas chromatography). It is filed as biochemical. Particulars: rat spleen microsomes, average ± standard deviation of replicate experiments; for IC50: read-out: IC50 HO-1 (rat spleen)/μM. Here is the method:
(§1) Incubations for HO activity analysis were done under conditions for which the rate of CO formation (pmol CO×min^−1×mg protein^−1) was linear with respect to time and microsomal protein concentration. Briefly, reaction mixtures (150 μL) consisting of 100 mM phosphate buffer (pH 7.4), 50 μM methemalbumin, and 1 mg/mL protein were pre-incubated with the inhibitors at final concentrations ranging from 0.1-100 μM for 10 minutes at 37° C. Reactions were initiated by adding NADPH at a final concentration of 1 mM and incubations were performed for an additional 15 minutes at 37° C.
(§2) Incubations for HO activity analysis were done under conditions for which the rate of CO formation (pmol CO/mg protein/minute) was linear with respect to time and microsomal protein concentration. Briefly, reaction mixtures (150 μL) consisting of 100 mM phosphate buffer (pH 7.4), 50 μM methemalbumin and 1 mg/mL protein were pre-incubated with the vehicle (ethanol or water in which the inhibitors were dissolved), or inhibitors at final concentrations ranging from 0.1-1000 μM for 10 minutes at 37° C. Reactions were initiated by adding β-NADPH at a final concentration of 1 mM and incubations were carried out for an additional 15 minutes at 37° C. Reactions were stopped by instantly freezing the reaction mixture on pulverized dry ice and CO formation was measured by gas chromatography using a TA 3000R Process Gas Analyzer (Trace Analytical/Ametek, Newark, Del., USA).
(§3) The values on the abscissa represent the decimal logarithm of the inhibitor's concentration (in μM), whereas the values of the activity on the ordinate are expressed as a percentage of the control experiments without inhibitor.
(§4) The IC50 values for the replicate experiments were employed to generate the reported standard deviation value.

In a further assay the target is T2, HO-2 (rat brain) (Rattus norvegicus, UniProt P23711).
T2 construct: brain microsomes were used as a source of HO-2; from tissue; host or cells: brain microsomal fraction of adult male Sprague-Dawley rats
T2 sequence (P23711 1-315): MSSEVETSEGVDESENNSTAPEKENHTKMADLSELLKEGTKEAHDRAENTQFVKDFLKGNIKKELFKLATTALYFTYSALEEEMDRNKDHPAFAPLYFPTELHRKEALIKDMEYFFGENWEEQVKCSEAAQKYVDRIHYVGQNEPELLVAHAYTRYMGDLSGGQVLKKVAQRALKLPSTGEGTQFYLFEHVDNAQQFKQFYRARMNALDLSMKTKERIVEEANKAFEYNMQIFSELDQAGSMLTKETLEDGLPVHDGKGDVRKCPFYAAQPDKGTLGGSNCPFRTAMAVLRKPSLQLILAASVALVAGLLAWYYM
The experiment in a line: HO enzymatic activity in rat brain microsomal fraction (CO formed from methemalbumin, gas chromatography). The format is biochemical. The settings on record: rat brain microsomes, average ± standard deviation of replicate experiments; for IC50: read-out: IC50 HO-2 (rat brain)/μM. Here is the method:
as §1, §2, §3, §4

From US20140155445A1, “Compounds and Methods for Treating Cancer and Diseases of the Central Nervous System” (Osta Biotechnologies Inc., priority 2007, published 2014) come the findings set out here.

Where a name gives a salt, the structure may show the parent alone.

Take `Nc1ccc(OCC2CO[C@@](CCc3ccc(Cl)cc3)(Cn3ccnc3)O2)cc1` (stereo in doubt) [(2R,4S)-2-[2-(4-chlorophenyl)ethyl]-2-[(1H-imidazol-1-yl)methyl]-4-[(4-aminophenyloxy)meth-yl]-1,3-dioxolane dihydrochloride]: the IC50 on HO-1 (rat spleen) turned out to be 1.4 ± 0.3 µM; on HO-2 (rat brain), 13 ± 4 µM.
Turning to `Oc1ccc(OCC2CO[C@@](CCc3ccc(Cl)cc3)(Cn3ccnc3)O2)cc1` (stereo in doubt) [(2R,4S)-2-[2-(4-chlorophenyl)ethyl]-2-[(1H-imidazol-1-yl)methyl]-4-[(4-hydroxyphenyloxy)meth-yl]-1,3-dioxolane hydrochloride], the IC50 on HO-1 (rat spleen) worked out at 1.8 ± 0.5 µM; on HO-2 (rat brain) it was 7.1 ± 0.7 µM.
For `N#Cc1ccc(OCC2CO[C@@](CCc3ccc(Cl)cc3)(Cn3ccnc3)O2)cc1` (stereo in doubt) [(2R,4S)-4-{2-[2-(4-chlorophenyl)ethyl]-2-imidazol-1-ylmethyl-[1,3]dioxolan-4-ylmethoxy}-benzonitrile hydrochloride], the figures for the IC50 on HO-1 (rat spleen) and at HO-2 (rat brain) were 0.67 ± 0.02 µM and 1.7 ± 0.2 µM, respectively.
On to `COc1ccc(OCC2CO[C@](CCc3ccc(Cl)cc3)(Cn3ccnc3)O2)cc1` (stereo in doubt) [(2S,4S)-2-[2-(4-chlorophenyl)ethyl]-2-[(1H-imidazol-1-yl)methyl]-4-[(4-methoxyphenyloxy)meth-yl]-1,3-dioxolane hydrochloride], for which the IC50 at HO-1 (rat spleen) amounted to 28 ± 15 µM; at HO-2 (rat brain), 29 ± 6 µM.
For `Cl.OC(Cn1ccnc1)Cn1ccnc1` [1,3-Di-(1H-imidazol-1-yl)propan-2-ol dihydrochloride], the “IC50 HO-1 (rat spleen)/μM” value against HO-1 (rat spleen) was “Inactive”. The “IC50 HO-2 (rat brain)/μM” value on HO-2 (rat brain) is recorded as “Inactive”.
Turning to `c1cn(CCCCc2ccc(CCCCn3ccnc3)cc2)cn1` [1,4-bis[(4-1H-imidazol-1-yl)butyl]benzene dihydrochloride], the IC50 came out at 0.4 ± 0.1 µM at HO-1 (rat spleen) and 8 ± 2 µM at HO-2 (rat brain).
`c1cn(CCCCCCCCn2ccnc2)cn1` [1,8-bis-(1H-imidazol-1-yl)octane dihydrochloride]: the IC50 at HO-1 (rat spleen) and on HO-2 (rat brain) was over 100 µM each time.
With `c1cn(CCCCCCCCCCn2ccnc2)cn1` [1,10-bis-(1H-imidazol-1-yl)decane dihydrochloride], the IC50 is about 10 µM at HO-1 (rat spleen) and about 14 µM at HO-2 (rat brain).
For `c1cn(CCCCCCCCCCCCn2ccnc2)cn1` [1,12-bis-(1H-imidazol-1-yl)dodecane dihydrochloride] the same measures were about 4 µM and about 9 µM.
For `O=C(CCc1ccc([N+](=O)[O-])cc1)Cn1ccnc1` [1-(1H-Imidazol-1-yl)-4-(4-nitro-phenyl)-butan-2-one hydrochloride] the same measures were 1.8 ± 0.4 µM and 6.2 ± 0.1 µM.
As to `CCC(=O)Cn1ccnc1` [1-(1H-Imidazol-1-yl)-butan-2-one hydrochloride], the IC50 on HO-1 (rat spleen) and at HO-2 (rat brain) was over 100 µM in each case.
Regarding `CC(=O)Cn1ccnc1` [1-(1H-Imidazol-1-yl)-propan-2-one], the “IC50 HO-1 (rat spleen)/μM” value against HO-1 (rat spleen) is “Not Active”. At HO-2 (rat brain), the “IC50 HO-2 (rat brain)/μM” value is reported as “Not Active”.
Take `O=C(Cn1ccnc1)c1ccc2c(c1)OCCO2` [1-(2,3-dihydro-benzo[1,4]dioxin-6-yl)-2-imidazol-1-yl-ethanone hydrochloride]: the IC50 on HO-1 (rat spleen) was 73 ± 10 µM; on HO-2 (rat brain), over 100 µM.
For `O=C(Cn1cncn1)c1ccc(Cl)cc1Cl` [1-(2,4-dichloro-phenyl)-2-[1,2,4]triazol-1-yl-ethanone] the same measures were 4.1 ± 0.9 µM and over 100 µM.
For `O=C(Cn1ccnc1)c1ccc(Cl)cc1Cl` [1-(2,4-dichloro-phenyl)-2-imidazol-1-yl-ethanone hydrochloride], the IC50 on HO-1 (rat spleen) came to 2.2 ± 0.5 µM; at HO-2 (rat brain), 15 ± 1 µM.
As to `O=C(Cn1cncn1)c1cc(Cl)ccc1Cl` [1-(2,5-Dichloro-phenyl)-2-[1,2,4]triazol-1-yl-ethanone], the IC50 at HO-1 (rat spleen) was 18.4 ± 0.5 µM; at HO-2 (rat brain) it was over 100 µM.
Consider `O=C(Cn1ccnc1)c1cc(Cl)ccc1Cl` [1-(2,5-dichloro-phenyl)-2-imidazol-1-yl-ethanone hydrochloride], for which the IC50 on HO-1 (rat spleen) came out at 6.6 ± 0.2 µM; at HO-2 (rat brain), 58 ± 10 µM.
Regarding `c1ccc(CCC2(Cn3cnnn3)OCCO2)cc1` [1-(2-Phenethyl-[1,3]dioxolan-2-ylmethyl)-1H-tetrazole hydrochloride], the IC50 on HO-1 (rat spleen) is 39 ± 5 µM; on HO-2 (rat brain) it was over 100 µM.
For `c1ccc(CCC2(Cn3cnc(-c4ccccc4)c3)OCCO2)cc1` [1-(2-Phenethyl-[1,3]dioxolan-2-ylmethyl)-4-phenyl-1H-imidazole hydrochloride], in that order: over 100 µM and over 100 µM.
For `c1cn(CCC23CC4CC(CC(C4)C2)C3)cn1` [1-(2-adamantan-1-yl-ethyl)-1H-imidazole hydrochloride], the IC50 at HO-1 (rat spleen) is 3 ± 1 µM; at HO-2 (rat brain), over 100 µM.
In the case of `c1ccc(CSCCn2ccnc2)cc1` [1-(2-benzylsulfanyl-ethyl)-1H-imidazole], the IC50 is 4 ± 1 µM on HO-1 (rat spleen) and over 10 µM on HO-2 (rat brain).
For `c1ccc(-c2ccc(C3(Cn4ccnc4)OCCO3)cc2)cc1` [1-(2-biphenyl-4-yl-[1,3]dioxolan-2-ylmethyl)-1H-imidazole hydrochloride] the same measures were 16.2 ± 0.4 µM and over 100 µM.
With `Cc1nccn1CC(=O)CCc1ccccc1` [1-(2-methyl-imidazol-1-yl)-4-phenyl-butan-2-one hydrochloride], the IC50 on HO-1 (rat spleen) and at HO-2 (rat brain) was over 100 µM in each case.
As for `c1ccc2cc(C3(Cn4cncn4)OCCO3)ccc2c1` [1-(2-naphthalen-2-yl-[1,3]dioxolan-2-ylmethyl)-1H-[1,2,4]triazole], the IC50 was 3.58 ± 0.08 µM at HO-1 (rat spleen) and over 100 µM at HO-2 (rat brain).
For `c1ccc2cc(C3(Cn4ccnc4)OCCO3)ccc2c1` [1-(2-naphthalen-2-yl-[1,3]dioxolan-2-ylmethyl)-1H-imidazole hydrochloride] the same measures were 2.63 ± 0.06 µM and over 100 µM.
As to `c1ccc(OCCn2ccnc2)cc1` [1-(2-phenoxy-ethyl)-1H-imidazole hydrochloride], the IC50 was 61 ± 29 µM at HO-1 (rat spleen) and over 100 µM on HO-2 (rat brain).
Regarding `c1ccc(SCCn2ccnc2)cc1` [1-(2-phenylsulfanyl-ethyl)-1H-imidazole hydrochloride], the values for the IC50 on HO-1 (rat spleen) and on HO-2 (rat brain) were 6 ± 0.1 µM and over 100 µM, respectively.
For `O=C(Cn1cncn1)c1ccc(Cl)c(Cl)c1` [1-(3,4-Dichloro-phenyl)-2-[1,2,4]triazol-1-yl-ethanone hydrochloride], in that order: 1.3 ± 0.5 µM and over 100 µM.
In the case of `O=C(CCc1ccccc1)Cn1nc(Br)nc1Br` [1-(3,5-Dibromo-[1,2,4]triazol-1-yl)-4-phenyl-butan-2-one], the IC50 at HO-1 (rat spleen) and at HO-2 (rat brain) was over 100 µM each time.
Take `O=C(CCc1ccccc1)Cn1nc(-c2ccccc2)nc1-c1ccccc1` [1-(3,5-Diphenyl-[1,2,4]triazol-1-yl)-4-phenyl-butan-2-one]: the IC50 on HO-1 (rat spleen) and on HO-2 (rat brain) was over 100 µM each time.
For `O=C(Cn1ccnc1)c1cccc(Br)c1` [1-(3-Bromo-phenyl)-2-(1H-imidazol-1-yl)-ethanone hydrochloride], the figures for the IC50 on HO-1 (rat spleen) and on HO-2 (rat brain) were 2.1 ± 0.1 µM and 35 ± 3 µM, respectively.
For `CSc1ncn(CC(=O)CCc2ccccc2)n1` [1-(3-Methylsulfanyl-[1,2,4]triazol-1-yl)-4-phenyl-butan-2-one], in that order: over 100 µM and over 100 µM.
